Experiments:
HaCaT cells = experiment: qPCR of TSLP isoform mRNA in challenged HaCaT keratinocytes; type: cell-based, human; conditions: 24 hours challenge
Experimental: RNA was extracted using the RNeasy Micro Kit (Qiagen). RNA was reverse transcribed with oligo(dT) and ImProm-II™ Reverse Transcriptase (Promega). Quantitative real-time PCRs were performed with Fast SYBR Green PCR kit on the Applied Biosystems 7900HT Fast RT-PCR System (Applied Biosystems). Results were quantified using the 2-DCt method (Livak and Schmittgen, Methods, 2001). Gene expression was normalized to the expression of the housekeeping gene, gapdh.
Caco2 cells were cultured in DMEM supplemented with 10% FBS, 1% Glutamine, 1% non-essential aminoacids, 1% Penicillin-Streptomycin. HaCaT cells were cultured in DMEM supplemented with 10% FBS, 1% Glutamine, 1% Penicillin-Streptomycin. For growth on transwell inserts (Corning), 2×10^5 caco2 cells were seeded on 6 mm^2 transwells and grown for 10-12 days, until transepithelial resistance was roughly […]. Cells were infected with bacteria in the absence of antibiotics at a multiplicity of infection of 1:100 for one hour. Then medium was replaced with complete medium containing 100 μg/mL Gentamicin and the cells were cultured for a further 23 hours. HaCaT cells were challenged with calcitriol, an active form of vitamin D, (10 μM, Enzo Life Sciences), or poly(I:C) (1 μg/mL) for 24 hours. At the end of the challenge cells were lysed in Trizol (Ambion, Life Technologies) reagent for RNA extraction or RIPA buffer for protein extraction.

C57Bl/6J mice = experiment: LPS-induced endotoxic shock, serum cytokines; type: in vivo, mouse; conditions: for level of inflammatory cytokines in the serum: endotoxin shock model, short TSLP fragments
Experimental: (§1) Mice were treated intraperitoneally (i.p.) with short TSLP at 50, 100, 200 μg per mouse in 200 μl of injectable water twice, 12 hours and 2 hours, before LPS administration (n=8 per group). Control mice received water. LPS (E. coli serotype 026:B6; Sigma-Aldrich) was injected intraperitoneally (i.p.) at 200 μg per mouse in 200 μl of injectable water. After 6 hours mice were euthanized by exsanguination under anesthesia and blood was collected. IFNgamma, IL6 and IL12-p40 levels were detected in the serum by ELISA (R&D Systems), according to manufacturer's instructions.

[1] = test system: peripheral blood mononuclear cells (PBMC); experiment: bidirectional allogenic mixed lymphocyte reaction (MLR), IFNgamma by ELISA; type: cell-based, human; conditions: PBMC from two donors 1:1, increasing doses, 5 days
Excerpt: Buffy coats were obtained from healthy donors (Abbiategrasso hospital, Italy) with informed consent for research use. Peripheral blood mononuclear cells (PBMC) were separated with Ficoll (GE Healthcare) gradient centrifugation and then resuspended and cultured in RPMI 1640 medium (Lonza) containing 10% fetal bovine serum (Gibco), 1% Glutamine 1% pyruvate, 1% non essential AA and 1% Penicillin-Streptomycin. PBMC from two different donors were co-cultured (1:1) in presence of long and short TSLP at different concentrations. After 5 days supernatants were collected and IFNgamma levels were measured by ELISA (R&D systems).

[2] = test system: intestinal mucosa from ulcerative colitis patients; experiment: ex-vivo organ culture of intestinal mucosa from ulcerative colitis patients; design: species or system human; conditions: 100 and 1000 ng/ml
Experimental: The activity of short TSLP on IBD tissues was assessed directly on human intestinal mucosa. Briefly, IBD mucosa was separated from the submucosa and mounted as described (Tsilingiri K., et al. J Vis Exp. 2013).

[3] = test system: myeloid dendritic cells (mDC); experiment: CCL17 and CCL22 ELISA in supernatants of myeloid DCs; type: cell-based, human; conditions: 24 hours, in the absence and in the presence of the short isoform
Experimental: (§2) Myeloid BDCA1+ cells were isolated from PBMC using CD1c (BDCA-1)+ Dendritic Cell Isolation Kit (Miltenyi Biotec) according to the manufacturer's instructions. […] Cells were then washed and cocultured with naïve CD4 T cells from a different donor (ratio 1 DC: 5 T). CD4 cells were isolated using naive CD4+ T Cell Isolation Kit II (Miltenyi Biotec) according to the manufacturer's instructions. After 6 days supernatants were collected and cells were restimulated for 4 hours with PMA (phorbol 12-myristate 13-acetate, 50 ng/ml) and ionomycin (1 ug/ml); for the last 3 hours brefeldin A (10 ug/ml) was added to the culture. Intracellular staining for TNF and IFNgamma positive cells was performed afterwards. CCL17, CCL22 and IFNgamma levels were assessed in the supernatant of DC or of the DC-T culture by ELISA (R&D Systems).

[4] = test system: myeloid dendritic cells (mDC); experiment: flow cytometry of STAT5 pY694 in myeloid dendritic cells; type: cell-based, human; conditions: 15 minutes, 3.5 nM, in the absence and in the presence of the short isoform
Experimental: Control conditions included cells either left unstimulated (negative control) or incubated with sodium pervanadate ([…], positive control, data not shown). At the end of incubation cells were rapidly spun, fixed with BD Cytofix™ Buffer for 15 minutes at 37° C. and permeabilized with BD™ Phosflow Perm Buffer III on ice for 30 minutes, followed by intracellular staining using mouse anti-pSTAT5 (pY694) antibody (45/Stat5, BD Biosciences) or isotype antibody (MOPC-21). Samples were acquired on a BD Cantoll flow cytometer (BD Biosciences) and analyzed with FlowJo software (v8.7, Tree Star).

[5] = test system: naive CD4 T cells cocultured with mDC; experiment: conditioned myeloid DCs cocultured with naive CD4 T cells; type: cell-based, human
Experimental: as §2

[6] = test system: monocyte-derived dendritic cells; experiment: monocyte-derived DCs conditioned 24 h, then Salmonella challenge; cytokine secretion by cytometric bead assay; type: cell-based, human; conditions: 24 h conditioning, then LPS or bacterial stimulation
Experimental: (§3) Peripheral CD14^+ monocytes were isolated from PBMC using human CD14^+ microbeads (Miltenyi Biotec) according to the manufacturer's instructions. Cells were then cultivated in complete RPMI 1640 medium in the presence of IL4 (2.5 ng/ml) and GM-CSF (5 ng/ml) (BD Biosciences) for 6 days to obtain monocyte-derived dendritic cells. The percentage and the phenotype of cell subsets were evaluated before and after differentiation by flow cytometry. Dendritic cells were seeded in complete RPMI 1640 medium at 1×10^6/ml in 48-well plates in the presence of short TSLP at different concentrations or culture medium alone. After 24 hours of culture dendritic cells were gently washed and challenged with Salmonella typhimurium FB62 (MOI 1:1) for 1 hour. Bacteria were then washed out and the medium replaced with medium containing 100 μg/ml gentamycin. Cytokine secretion was assessed after 24 hours by cytometric bead assay Flex sets (BD Biosciences). CBA were acquired on a BD Accuri C6 (BD Biosciences) and analyzed with FCAP software (BD Biosciences).

[7] = test system: mice with DSS-induced colitis; experiment: DSS-induced colitis; type: in vivo, mouse; conditions: 3% DSS, 200 μg i.p. every other day
Experimental: Colitis was induced by adding 3% (w/v) DSS (TdB Consultancy AB, Uppsala, Sweden) to drinking water for 9 days. Mice were treated i.p. with short TSLP (200 μg in 200 μl of injectable water) the day before DSS administration and every other day during the entire study. Mice were monitored daily for weight loss.

tslpr-/- mice = experiment: LPS-induced endotoxic shock in TSLPR knock-out mice; type: in vivo, mouse; conditions: 200 μg i.p.
Experimental: Female C57Bl/6J mice (8 to 10 weeks of age) were obtained from Charles River Laboratories (Milan, Italy). TSLPR-deficient mice on the C57Bl/6J background were provided by Dr W. J. Leonard (Laboratory of Molecular Immunology, NHLBI, USA). Mice were bred and maintained at IFOM-IEO campus animal facility under specific pathogen-free conditions. All experiments were performed in accordance with the guidelines established in the Principle of Laboratory Animal Care (directive 86/609/EEC).
as §1

[8] = test system: monocyte-derived dendritic cells; experiment: FACS analysis of activation status of monocyte derived DCs; type: cell-based, human; conditions: 24 h conditioning; immature and Salmonella treated (mature) DCs
Experimental: as §3
Cells were stained with monoclonal anti-human fluorescently conjugated antibodies: CD14 (M5E2), CD19 (HIB19), CD11c (B-ly6), CD45RA (HI100), CD3 (UCHT1), TNF (Mab11), IFNg (4S.B3), TNF (Mab11) from BD Biosciences; CD4 (RPA-T4) from Ebioscience; CD1a (HI149) and TSLPR (1B4) from Biolegend.

[9] = i.p. 12 hours and 2 hours before LPS, 6 hours after LPS, dose-dependent

For C=C1/C(=C\C=C2/CCC[C@]3(C)[C@@H]([C@H](C)CCCC(C)(C)O)CC[C@@H]23)C[C@@H](O)C[C@@H]1O [vitamin D, calcitriol], the “short TSLP mRNA” value (HaCaT cells) was “significantly upregulated mRNA for short TSLP”.
“C terminal peptide: C terminal fragment of short TSLP, aa 24-63 of SEQ ID NO: 1, mw 4.8 KDa (ATQAMKKRRKRKVTTNKCLEQVSQLQGLWRRFNRPLLKQQ; listed as Homo sapiens)” was tested, and the “level of inflammatory cytokines in the serum” value (C57Bl/6J mice) was “able to reduce the level of inflammatory cytokines in the serum” and the “IFN-gamma release in MLR” value [1] was “inhibiting IFNgamma secretion”.
With “N terminal: N terminal fragment of short TSLP, aa 4-40 of SEQ ID NO: 1, mw 4.2 KDa (MKTKAALAIWCPGYSETQINATQAMKKRRKRKVTTNK; listed as Homo sapiens)” the “level of inflammatory cytokines in the serum” value (C57Bl/6J mice) was “did not exert any effects” and the “IFN-gamma release in MLR” value [1] was “inhibiting IFNgamma secretion”.
For “long TSLP: recombinant human TSLP long isoform, aa. 29-159 of SEQ ID NO: 2, from R&D Systems, or produced in house in baculovirus”, the “ongoing inflammation in the tissue” value [2] was “only short TSLP ameliorated the ongoing inflammation”, the “secretion of CCL17” value [3] was “significantly increased” and the “secretion of CCL22” value [3] was “significantly increased”. For the same molecule, the “IFN-gamma release in MLR” value [1] was “increasing the amount of IFN-gamma released” and the STATS phosphorylation [4] was “significantly increased”.
In the case of polyI:C, the “long TSLP mRNA” value (HaCaT cells) is reported as “upregulated the long isoform”.
“short TSLP: short TSLP peptide, aa 4-63 of SEQ ID NO: 1, mw 7 KDa, synthesized in house” was tested, and the “percentage of Th1 cells” value ([5]; conditioned DCs 24 h, 6 days coculture, IFNgamma intracellular staining) was “reducing the percentage of Th1 cells”, the “IFN-gamma secretion in DC-T coculture” value ([5]; conditioned DCs 24 h, supernatant day 6) was “reducing” and the “counter effect to long TSLP on myeloid DCs” value ([5]; equimolar ratio with long TSLP) was “does not mediate a counter effect to the long isoform”. For the same molecule, the “capacity to release IL12-p70” value [6] was “strongly affected”, the “capacity to release IL-1beta” value [6] was “strongly affected” and the “capacity to release IL-6” value [6] was “strongly affected”. The “capacity to release IL-10” value [6] was “strongly affected”, the “capacity to release TNF-alfa” value [6] was “strongly affected” and the “ongoing inflammation in the tissue” value [2] was “ameliorated the ongoing inflammation in the tissue”. For the same molecule, the “production of mucous by goblet cells” value [2] was “restored the production of mucous by goblet cells”, the tissue architecture [2] was “normalized tissue architecture” and the body weight loss [7] was “significantly limiting weight loss”. The “anti-inflammatory effect (serum cytokines) in TSLPR knock-out mice” value (tslpr-/- mice) was “also manifested”, the “IFN-γ in the sera” value (C57Bl/6J mice; [9]) was “significant decrease” and the “IL-6 in the sera” value (C57Bl/6J mice; [9]) was “significant decrease”. The “IL-12p40 in the sera” value (C57Bl/6J mice; [9]) was “significant decrease”, the “expression of maturation markers CD80, CD86 or HLA-DR” value [8] was “no change” and the “inhibition of the release of IFN-gamma” value [1] was 50%.

From patent publication US20160052985A1, “THYMIC STROMAL LYMPHOPOIETIN FRAGMENTS AND USES THEREOF” (IEO - ISTITUTO EUROPEO DI ONCOLOGIA SRL, priority 2013, published 2016)
